From US20230114728A1 (Venatorx Pharmaceuticals, Inc., priority 2019, published 2023) come the findings set out here.

Converted amounts (≈) assume the structure as drawn.

The nature of assay [1]: Bocillin-FL fluorescence polarization competition binding assay, A. baumannii PBP3. The note with it: fluorescence polarization competition binding assay using Bocillin-FL; column 3; read-out: 4. baumannii PBP1a Potency. The gist of the method:
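A. baumannii PBP2 (2.5 μM) and PBP3 (0.2 μM) were run in 25 mM Tris pH 8.0 buffer with Tween 20; E. coli PBP3 (1.5 μM) and N. gonorrhoeae PBP2 ([…]) in 50 mM Hepes pH 8.0 buffer.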
On the technique in general: In fluorescence polarisation assays a small probe gives low polarisation when free and higher when bound to something large.

The target in another assay is T1, P. aeruginosa PBP3 (Pseudomonas aeruginosa, UniProt G3XD46).
T1 construct: made in house
T1 sequence (G3XD46 whole entry): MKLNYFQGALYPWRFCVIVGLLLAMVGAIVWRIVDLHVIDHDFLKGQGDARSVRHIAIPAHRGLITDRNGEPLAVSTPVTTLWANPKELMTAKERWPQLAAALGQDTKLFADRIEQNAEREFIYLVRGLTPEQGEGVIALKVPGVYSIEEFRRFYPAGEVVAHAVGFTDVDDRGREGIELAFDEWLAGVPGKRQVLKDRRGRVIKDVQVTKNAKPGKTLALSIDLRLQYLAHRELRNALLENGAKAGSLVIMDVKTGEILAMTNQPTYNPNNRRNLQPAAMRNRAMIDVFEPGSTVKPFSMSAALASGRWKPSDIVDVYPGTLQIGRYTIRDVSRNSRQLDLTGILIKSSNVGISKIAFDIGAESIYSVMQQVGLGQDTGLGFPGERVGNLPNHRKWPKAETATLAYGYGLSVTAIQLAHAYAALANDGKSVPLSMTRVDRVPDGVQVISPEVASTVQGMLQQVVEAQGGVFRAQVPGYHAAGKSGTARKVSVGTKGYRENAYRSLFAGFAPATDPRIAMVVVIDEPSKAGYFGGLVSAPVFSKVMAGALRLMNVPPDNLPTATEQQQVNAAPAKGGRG
The experiment in a line: Bocillin-FL fluorescence polarization competition binding assay, P. aeruginosa PBP3. The note with it: fluorescence polarization competition binding assay using Bocillin-FL. In short, it runs like this:
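Inhibitor competition with Bocillin-FL for P. aeruginosa PBP3 was followed by fluorescence polarization on a Cytation3 (BioTek) reader, using g-factor 0.96, 490 nm excitation and 520 nm emission. The enzyme was at 0.75 μM and the probe at 0.1 μM in Hepes/NaCl/glycerol buffer, 80 μl per well. FP was recorded immediately after probe addition for up to 60 minutes. Potency was expressed as EC50, the concentration that reduces bound probe by 50%.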

For another assay, the system named is N. gonorrhoeae WHO Z. Briefly: Liquid broth MIC in Fastidious broth. The note with it: Neisseria gonorrhoeae, read-out: Minimum Inhibitory Concentration, N. gonorrhoeae WHO Z. In kind it is cell-based. In short, it runs like this: (§1)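 Mosaic-PBP2 strains grown 24 h on chocolate agar (36 °C, 5% CO2), then direct-suspended in saline and OD600-adjusted. Twofold compound dilutions in Fastidious broth inoculated at 5×10^5 CFU/mL and incubated ~24 h at 36 °C, 5% CO2. MIC read visually as lowest concentration with <10% growth versus full-growth wells.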

The next assay has as its system N. gonorrhoeae WHO Q. The experiment in a line: Liquid broth MIC in Fastidious broth. Format: cell-based. The note with it: Neisseria gonorrhoeae, read-out: Minimum Inhibitory Concentration, N. gonorrhoeae WHO Q. In short, it runs like this: as §1
The target in another assay is T2, N. gonorrhoeae PBP2 (Neisseria gonorrhoeae, UniProt P08149).
T2 construct: made in house
T2 sequence (P08149 whole entry): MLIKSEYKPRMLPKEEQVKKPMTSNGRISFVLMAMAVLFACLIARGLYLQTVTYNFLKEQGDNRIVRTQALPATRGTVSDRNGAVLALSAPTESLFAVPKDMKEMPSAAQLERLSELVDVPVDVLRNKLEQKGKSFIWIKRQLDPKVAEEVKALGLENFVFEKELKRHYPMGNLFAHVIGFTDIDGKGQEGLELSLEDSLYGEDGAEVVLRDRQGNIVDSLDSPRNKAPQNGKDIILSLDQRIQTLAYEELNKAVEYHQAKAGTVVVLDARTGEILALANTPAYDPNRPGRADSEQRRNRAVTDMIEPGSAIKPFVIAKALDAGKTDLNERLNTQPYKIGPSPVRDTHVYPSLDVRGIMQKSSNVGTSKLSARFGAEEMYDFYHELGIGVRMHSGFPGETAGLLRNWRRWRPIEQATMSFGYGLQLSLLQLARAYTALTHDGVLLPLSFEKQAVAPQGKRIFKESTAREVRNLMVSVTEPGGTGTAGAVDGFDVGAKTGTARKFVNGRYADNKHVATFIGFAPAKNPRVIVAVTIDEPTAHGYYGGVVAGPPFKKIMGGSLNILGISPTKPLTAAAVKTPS
Briefly: Bocillin-FL fluorescence polarization competition binding assay, N. gonorrhoeae PBP2. The note with it: fluorescence polarization competition binding assay using Bocillin-FL; read-out: N. gonorrhoeae PBP2 Potency. From the text:
Example I: Experimental Method for Penicillin-Binding Protein Binding Assays with Bocillin-FL Via Fluorescence Polarization
To determine the ability of boronic acid-based test PBP inhibitors to bind Penicillin Binding Proteins (PBPs), Bocillin-FL (fluorescently-labeled penicillin V; ThermoFisher Scientific) was used in a fluorescence polarization (FP) competition binding assay to assess inhibitor binding to PBP2, PBP3 or PBP4 from Escherichia coli (K12), PBP3 from Pseudomonas aeruginosa (PA01), PBP1a, PBP2 and PBP3 from Acinetobacter baumannii (ATCC 19606), and PBP2 from Neiserria gonorrheae (FA19). PBPs were cloned and purified as described previously (E. coli PBPs, King, D. T, et al., ACS Infectious Diseases 2015, 1, 175-184; P. aeruginosa PBP3, Han et. al., PNAS 2010, 107 (51), 22002-22007; A. baumannii PBPs, Penwell et. al., Antimicrob. Agents Chemother. 2015, 59 (3), 1680-1689; N. gonorrhoeae PBP2, Singh et. al., J Biol. Chem. 2019, 294 (38), 14020-14032). To establish assay conditions for competition binding, enzyme titration/saturation binding experiments were initially performed. Bocillin-FL was prepared at 0.2 μM in a buffer comprised of 50 mM Hepes (pH 8.0), 300 mM NaCl and 5% (v/v) glycerol for reactions with E. coli, P. aeruginosa and N. gonorrhoeae PBPs, and 25 mM Tris (pH 8.0), 200 mM NaCl and 10% (v/v) glycerol and 0.005% (v/v) Tween 20 for reactions with A. baumannii PBPs. Saturation binding was performed by mixing 40 μl of PBP solutions ranging in concentrations from 0-24 μM with 40 μl of the 0.2 μM Bocillin-FL solution, in individual wells of a black 384-well microplate. FP was measured immediately upon mixing (Excitation, 490 nm; Emission, 520 nm; g-factor, 0.96), using a Cytation3 (BioTek) microplate reader and measured continuously for up to 120 minutes. […] The competition binding assay (80 μl final volume) was validated using beta-lactams and PBPs at final concentrations of: 1.5 μM, E. coli PBP3; 0.75 μM, P. aeruginosa PBP3; 1 μM A. baumannii PBP1a; 2.5 μM A. baumannii PBP2; 0.2 μM A. baumannii PBP3; and […] N. gonorrhoeae PBP2. Bocillin-FL was at 0.1 μM (0.05 μM with A. baumannii PBP1a) and beta-lactam concentrations ranged from 0-1000 μM. […] Bocillin-FL was added and the FP immediately measured for up to 60 minutes (90 minutes for E. coli PBP2). […] The beta-lactam potency was reported as the concentration of beta-lactam required to reduce the amount of PBP bound-Bocillin-FL by 50% (EC50). […] Binding assays for boronic acid PBP inhibitors were performed in an identical fashion for the respective PBPs

For `NCCN1CCN(C(=O)N[C@@H](C(=O)N[C@H]2Cc3ccc(F)c(C(=O)O)c3OB2O)c2c(F)cc(O)c(O)c2Cl)C(=O)C1=O` (single isomer, unassigned) [Example 26], the EC50 in assay [1] is 30 to 100 µM. In addition, the “P. aeruginosa PBP3 Potency” value at P. aeruginosa PBP3 is reported as “D (D represents a potency <10 μM)”.
Turning to `NCCCN1CCN(C(=O)N[C@@H](C(=O)N[C@H]2Cc3ccc(F)c(C(=O)O)c3OB2O)c2c(F)cc(O)c(O)c2Cl)C(=O)C1=O` (single isomer, unassigned) [Example 27], the EC50 in assay [1] is 30 to 100 µM. At P. aeruginosa PBP3, the “P. aeruginosa PBP3 Potency” value is listed as “D (D represents a potency <10 μM)”.
With `O=C(O)c1c(F)ccc2c1OB(O)[C@@H](NC(=O)[C@H](NC(=O)N1CCNC1=O)c1c(F)cc(O)c(O)c1Cl)C2` (single isomer, unassigned) [Example 34], in assay [1], the EC50 is > 100 µM. Also, on P. aeruginosa PBP3, the “P. aeruginosa PBP3 Potency” value is on record as “D (D represents a potency <10 μM)”.
Take `CCN1CCN(C(=O)N[C@@H](C(=O)N[C@H]2Cc3cccc(C(=O)O)c3OB2O)c2cc(O)cc(O)c2)C(=O)C1=O` (single isomer, unassigned) [Example 82]: the MIC in the assay with N. gonorrhoeae WHO Z and in the assay with N. gonorrhoeae WHO Q was 4 to 8 µg/mL (≈ 7.4 to 14.8 µM) each time. For the same compound, the EC50 on N. gonorrhoeae PBP2 was < 10 µM. For the same compound, the “P. aeruginosa PBP3 Potency” value on P. aeruginosa PBP3 was “D (D represents a potency <10 μM)”.
For the compound `NCCN1CCN(C(=O)N[C@H](C(=O)N[C@H]2Cc3cccc(C(=O)O)c3OB2O)c2ccc(C(=O)O)cc2)C(=O)C1=O` (single isomer, unassigned) [Example 83], the MIC in the assay with N. gonorrhoeae WHO Z and in the assay on N. gonorrhoeae WHO Q was > 64 µg/mL in each case. Further, on N. gonorrhoeae PBP2, the EC50 is < 10 µM. The “P. aeruginosa PBP3 Potency” value on P. aeruginosa PBP3 was “C (C represents a potency between 10 and 30 μM)”.
Turning to `CCN1CCN(C(=O)N[C@@H](C(=O)N[C@H]2Cc3cccc(C(=O)O)c3OB2O)c2cc(Cl)c(O)cc2Cl)C(=O)C1=O` (single isomer, unassigned) [Example 91], the MIC in the assay with N. gonorrhoeae WHO Z and in the assay with N. gonorrhoeae WHO Q was 16 to 32 µg/mL (≈ 27 to 53.9 µM) each time. On N. gonorrhoeae PBP2, the EC50 was < 10 µM. Also, the “P. aeruginosa PBP3 Potency” value on P. aeruginosa PBP3 is “D (D represents a potency <10 μM)”.
With `CCN1CCN(C(=O)N[C@H](C(=O)N[C@H]2Cc3cccc(C(=O)O)c3OB2O)c2cc(Cl)c(O)cc2Cl)C(=O)C1=O` (single isomer, unassigned) [Example 92], the MIC in the assay with N. gonorrhoeae WHO Z and with N. gonorrhoeae WHO Q was > 64 µg/mL each time. The EC50 on N. gonorrhoeae PBP2 is < 10 µM. Moreover, the “P. aeruginosa PBP3 Potency” value at P. aeruginosa PBP3 is “B (B represents a potency between 30 μM and 500 μM inclusive)”.
Turning to `O=C(O)c1c(F)ccc2c1OB(O)[C@@H](NC(=O)C(NC(=O)N1CCN(CCBr)C(=O)C1=O)c1c(F)cc(O)c(O)c1F)C2` (stereo partly drawn) [Example 38, (3R)-3-(2-(4-(2-bromoethyl)-2,3-dioxopiperazine-1-carboxamido)-2-(2,6-difluoro-3,4-dihydroxyphenyl)acetamido)-7-fluoro-2-hydroxy-3,4-dihydro-2H-benzo[e][1,2]oxaborinine-8-carboxylic acid], in assay [1], the EC50 is 10 to 30 µM.
With `CCN1CCN(C(=O)NC(C(=O)N[C@H]2Cc3cccc(C(=O)O)c3OB2O)c2ccc(C(N)=O)c(O)c2)C(=O)C1=O` (stereo partly drawn) [Example 45, (3R)-3-(2-(4-carbamoyl-3-hydroxyphenyl)-2-(4-ethyl-2,3-dioxopiperazine-1-carboxamido)acetamido)-2-hydroxy-3,4-dihydro-2H-benzo[e][1,2]oxaborinine-8-carboxylic acid], the MIC with N. gonorrhoeae WHO Z and with N. gonorrhoeae WHO Q was 16 to 32 µg/mL (≈ 28.2 to 56.4 µM) each time. In addition, on N. gonorrhoeae PBP2, the EC50 is < 10 µM. Moreover, on P. aeruginosa PBP3, the “P. aeruginosa PBP3 Potency” value was “D (D represents a potency <10 μM)”.
Regarding `CCN1CCN(C(=O)NC(C(=O)N[C@H]2Cc3cccc(C(=O)O)c3OB2O)c2cccc(O)c2)C(=O)C1=O` (stereo partly drawn) [Example 68, (3R)-3-(2-(4-ethyl-2,3-dioxopiperazine-1-carboxamido)-2-(3-hydroxyphenyl)acetamido)-2-hydroxy-3,4-dihydro-2H-benzo[e][1,2]oxaborinine-8-carboxylic acid], the values for the MIC with N. gonorrhoeae WHO Z and in the assay with N. gonorrhoeae WHO Q were 16 to 32 µg/mL (≈ 30.5 to 61 µM) and > 64 µg/mL, respectively. For the same compound, at N. gonorrhoeae PBP2, the EC50 is < 10 µM. Moreover, the “P. aeruginosa PBP3 Potency” value at P. aeruginosa PBP3 was “D (D represents a potency <10 μM)”.
For `CCN1CCN(C(=O)NC(C(=O)N[C@H]2Cc3cccc(C(=O)O)c3OB2O)c2cccc(N)c2)C(=O)C1=O` (stereo partly drawn) [Example 72, (3R)-3-(2-(3-aminophenyl)-2-(4-ethyl-2,3-dioxopiperazine-1-carboxamido)acetamido)-2-hydroxy-3,4-dihydro-2H-benzo[e][1,2]oxaborinine-8-carboxylic acid], the MIC in the assay with N. gonorrhoeae WHO Z and with N. gonorrhoeae WHO Q was 16 to 32 µg/mL (≈ 30.6 to 61.1 µM) each time. For the same compound, at N. gonorrhoeae PBP2, the EC50 was < 10 µM. Moreover, the “P. aeruginosa PBP3 Potency” value on P. aeruginosa PBP3 is “D (D represents a potency <10 μM)”.
As to `NCCN1CCN(C(=O)NC(C(=O)N[C@H]2Cc3cccc(C(=O)O)c3OB2O)c2c(F)cc(O)cc2Cl)C(=O)C1=O` (stereo partly drawn) [Example 94, (3R)-3-(2-(4-(2-aminoethyl)-2,3-dioxopiperazine-1-carboxamido)-2-(2-chloro-6-fluoro-4-hydroxyphenyl)acetamido)-2-hydroxy-3,4-dihydro-2H-benzo[e][1,2]oxaborinine-8-carboxylic acid], the MIC with N. gonorrhoeae WHO Z and in the assay with N. gonorrhoeae WHO Q was > 64 µg/mL each time. Moreover, the EC50 at N. gonorrhoeae PBP2 was < 10 µM.
`CCN1CCN(C(=O)NC(C(=O)N[C@H]2Cc3cccc(C(=O)O)c3OB2O)c2c(F)cc(O)cc2Cl)C(=O)C1=O` (stereo partly drawn) [Example 95, (3R)-3-(2-(2-chloro-6-fluoro-4-hydroxyphenyl)-2-(4-ethyl-2,3-dioxopiperazine-1-carboxamido)acetamido)-2-hydroxy-3,4-dihydro-2H-benzo[e][1,2]oxaborinine-8-carboxylic acid]: the MIC in the assay with N. gonorrhoeae WHO Z and with N. gonorrhoeae WHO Q was 16 to 32 µg/mL (≈ 27.7 to 55.5 µM) each time. Further, the EC50 on N. gonorrhoeae PBP2 is < 10 µM. The “P. aeruginosa PBP3 Potency” value at P. aeruginosa PBP3 is listed as “D (D represents a potency <10 μM)”.
In the case of `CCN1CCN(C(=O)NC(C(=O)N[C@H]2Cc3cccc(C(=O)O)c3OB2O)c2cccc(NS(N)(=O)=O)c2)C(=O)C1=O` (stereo partly drawn) [Example 98, (3R)-3-(2-(4-ethyl-2,3-dioxopiperazine-1-carboxamido)-2-(3-(sulfamoylamino)phenyl)acetamido)-2-hydroxy-3,4-dihydro-2H-benzo[e][1,2]oxaborinine-8-carboxylic acid], the MIC with N. gonorrhoeae WHO Z and in the assay on N. gonorrhoeae WHO Q was 16 to 32 µg/mL (≈ 26.6 to 53.1 µM) in each case. Also, the “P. aeruginosa PBP3 Potency” value at P. aeruginosa PBP3 is “D (D represents a potency <10 μM)”.
As for `CCN1CCN(C(=O)NC(C(=O)N[C@H]2Cc3cccc(C(=O)O)c3OB2O)c2cccc(S(N)(=O)=O)c2)C(=O)C1=O` (stereo partly drawn) [Example 99, (3R)-3-(2-(4-ethyl-2,3-dioxopiperazine-1-carboxamido)-2-(3-sulfamoylphenyl)acetamido)-2-hydroxy-3,4-dihydro-2H-benzo[e][1,2]oxaborinine-8-carboxylic acid], the MIC in the assay with N. gonorrhoeae WHO Z and with N. gonorrhoeae WHO Q was 16 to 32 µg/mL (≈ 27.2 to 54.5 µM) each time. Moreover, the “P. aeruginosa PBP3 Potency” value at P. aeruginosa PBP3 was “D (D represents a potency <10 μM)”.
